Assay results taken from patent US8349835B2, “Aromatic ring fused triazine derivatives and uses thereof” (Shenyang Pharmaceutical University, priority 2008, dated 2013).
pIC50: −log10 of the molar value.

Experiments:
[1] = in vivo; details: both sexes, mouse, intraperitoneal, Kunming mice, peritoneal injection, single administration, observed for one week
Description: 9) Acute Toxicity Testing
Animals: healthy mice of Kunming species, female and male each account for 50%, and the weights range from 18 to 22 g. All the mice were obtained from the laboratory animal center of Shenyang Pharmaceutical University. Certificate number: Liao Shi He Zi No. 033
Medicine preparation: drugs were added in 0.2% Polysorbate 80 (Tween-80) to make suspension. The dosage of tested compounds was indicated with mg/kg.
Test period and Observed index: observed for one week after the administration. The toxic reaction information of the mice was recorded everyday during the observation period. The death of mice was regarded as the principal index. Half lethal doses (LD50, mg/kg) of the compounds one week after the drug administration were calculated according to the method of weighted regression.

[2] = system: Human breast carcinoma cells (T47D); test: MTT growth inhibition of T47D; assay type: cell-based; details: 96 h, 4 days, read-out: IG50 T47D
Description: (§1) In Vitro Anti-Tumor Activity Test
(§2) Put cell suspension into centrifugal tubes with a pipette under sterile conditions, then the cell suspension was centrifuged for 3 minutes at 1300 rpm. Discarded the supernatant lightly and added fresh culture medium. Mixed the cells by pipetting, then transferred the cells into culture flasks, and put them into the CO2 incubator. Changed the culture medium once after 24 hours.
(§3) Human prostate cancer cells (DU145, PC-3) were cultured in a medium containing RPMI1640 basic medium supplemented with 10% heat-inactivated FBS, 100 IU/mL penicillin, 100 μg/mL streptomycin and 1 mmol/L L-glutamine. Human breast carcinoma cells (T47D, MDA-MB231) were cultured in a medium containing RPM11640 basic medium supplemented with 10% heat-inactivated FBS, 5 μg/mL insulin, 100 IU/mL penicillin, 100 μg/mL streptomycin and 1 mmol/L L-glutamine. Human breast carcinoma cells (MCF-7) were cultured in a medium containing DMEM basic medium supplemented with 10% heat-inactivated FBS, 5 μg/mL insulin, 100 IU/mL penicillin, 100 μg/mL streptomycin and […]. Murine Lewis lung cancer cells (LL/2), murine melanoma cells (B16FD) and Microvascular Endothelial Cells (MVEC) were cultured in a medium containing DMEM basic medium supplemented with 10% heat-inactivated FBS, 4.5 g/L glucose, 1.5 g/L NaHCO3, 100 IU/mL penicillin, 100 μg/mL streptomycin and 4 mmol/L L-glutamine. All these cell lines were incubated at 37° C. biochemical incubator with 5% CO2 saturated humidity.
(§4) After resuscitation, the cells were passed for 2-3 generations till they became stable, then they were used for the experiments. Each passage was based on the standard that all cells were spread over the bottoms of culture flasks.
(§5) Cells were digested off from the bottoms of culture flasks with trypsin (0.25%). The cell dissociation buffer was transferred into centrifuge tubes, added medium to stop the digestion, and centrifuged for 3 minutes at 1300 rpm. Discarded the supernatant lightly and added fresh culture medium (5 mL). Mixed the cells by pipetting, then added 10 μL of the cell suspension into the cell counting plate, and adjusted the cell concentration to 2×10^4 cells/mL. Added 100 μL of the cell suspension to all wells on the 96 well plates, except A1 well as the blank control. Put the plates into the biochemical incubator for 24 hours and to make sure the cells grew along the walls. […]
(§6) Added 50 μL MTT liquids (2 mg/mL) into each well, put the culture plates into the biochemical incubator for 4 h, discarded MTT liquids (TCC), added 200 μL DMSO, then oscillated for 10 minutes on the magnetic oscillator to make sure that the survived cells and the reaction product of MTT were fully dissolved. Detected and recorded the absorbance (OD) values of each well at the wavelength of 570 nm using the microplate reader. […] The cell growth inhibition rates under each drug concentration were calculated by the following formula. […] Inhibition rate of growth(%)=(1−The absorbance(OD)of cells with tested drugs/The absorbance(OD)of the blank control group)×100%
(§7) The absorbance (OD) of cells with tested drugs: OD value is measured with the test drugs.
(§8) The absorbance (OD) of the blank control group: OD value is measured without the test drugs. […]

[3] = system: Microvascular Endothelial Cells (MVEC); test: MTT growth inhibition of MVEC; assay type: cell-based; details: Endothelial cell, 96 h, 4 days culture with drug, read-out: IG50 on inhibiting growth of MVEC
In short: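 MVEC were seeded at 2×10^4 cells/mL in DMEM with 10% FBS and allowed to attach for 24 h, then treated with compound at final concentrations of 5–80 μmol/L (triplicates) for 4 days at 37 °C. MTT (4 h) absorbance at 570 nm gave % growth inhibition relative to untreated cells.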

[4] = system: murine melanoma cells (B16F0); test: MTT growth inhibition of B16F0; assay type: cell-based; details: Mus musculus, 96 h, 4 days, read-out: IG50 B16F0
Description: as §1, §2, §3, §4, §5, §6, §7, §8

[5] = system: Human breast carcinoma cells (MDA-MB231); test: MTT growth inhibition of MDA-MB231; assay type: cell-based; details: MDA-MB-231, 96 h, 4 days, read-out: IG50 MDA-MB231
Description: as §1, §2, §3, §4
(§9) Cells were digested off from the bottoms of culture flasks with trypsin (0.25%). The cell dissociation buffer was transferred into centrifuge tubes, added medium to stop the digestion, and centrifuged for 3 minutes at 1300 rpm. […]
as §6, §7, §8

[6] = system: Human prostate cancer cells (DU145); test: MTT growth inhibition of DU145; assay type: cell-based; details: DU-145, 96 h, 4 days, read-out: IG50 DU145
Description: as §1, §2, §3, §4, §5, §6, §7, §8

[7] = system: Murine Lewis lung cancer cells (LL/2); test: MTT growth inhibition of LL/2; assay type: cell-based; details: Mus musculus, Lewis lung carcinoma, 96 h; LL/2, MTT, 4 days; read-out: IG50 LL/2
Description: as §1, §2, §3, §4, §5, §6, §7, §8

[8] = system: Human Umbilical Vein Endothelial Cells (HUVEC); test: MTT growth inhibition of HUVEC; assay type: cell-based; details: 96 h, 4 days, read-out: IG50 HUVEC
Description: as §1, §2, §4
Cells were digested off from the bottoms of culture flasks with trypsin (0.25%). The cell dissociation buffer was transferred into centrifuge tubes, added medium to stop the digestion, and centrifuged for 3 minutes at 1300 rpm. Discarded the supernatant lightly and added fresh culture medium (5 mL). Mixed the cells by pipetting, then added 10 μL of the cell suspension into the cell counting plate, and adjusted the cell concentration to 2×10^4 cells/mL. Added 100 μL of the cell suspension to all wells on the 96 well plates, except A1 well as the blank control. Put the plates into the biochemical incubator for 24 hours and to make sure the cells grew along the walls.
The drugs were dissolved in 80 mmol/L DMSO first, and then diluted the drugs with ethanol to 8 mmol/L. The solution was further diluted with the culture medium to different concentrations as 160 μmol/L, 120 μmol/L, 80 μmol/L, 40 μmol/L, 20 μmol/L and 10 μmol/L. Added 100 μL of the drug solution to each well on the 96 well plates. Therefore, the final concentrations of the drugs that were added to the cells were 80 μmol/L, 40 μmol/L, 20 μmol/L, 10 μmol/L and 5 μmol/L, and each concentration were repeated in three parallel wells. Put the culture plates into the biochemical incubator to culture continuously for 4 days.
Added 50 μL MTT liquids (2 mg/mL) into each well, put the culture plates into the biochemical incubator for 4 h, discarded MTT liquids (TCC), added 200 μL DMSO, then oscillated for 10 minutes on the magnetic oscillator to make sure that the survived cells and the reaction product of MTT were fully dissolved. Detected and recorded the absorbance (OD) values of each well at the wavelength of 570 nm using the microplate reader. The OD values of cells without tested drugs were used as control. The cell growth inhibition rates under each drug concentration were calculated by the following formula. […] Inhibition rate of growth(%)=(1−The absorbance(OD)of cells with tested drugs/The absorbance(OD)of the blank control group)×100%
as §7
The absorbance (OD) of the blank control group: OD value is measured without the test drugs.
8) The Growth Inhibition Effect of Compounds on Human Breast Carcinoma Cells (T47D, MDA-MB231, MCF-7), Human Prostate Cancer (DUI45, PC-3), Murine Lewis Lung Cancer Cells (LL/2), Murine Melanoma Cells(B16F0) and Human Umbilical Vein Endothelial Cells (HUVEC) (Table 2).

[9] = system: Human breast carcinoma cells (MCF-7); test: MTT growth inhibition of MCF-7; assay type: cell-based; details: MCF7, 96 h, MCF-7, MTT, 4 days, read-out: IG50 MCF-7
Description: as §1, §2, §3, §4, §9, §6, §7, §8

[10] = system: Human prostate cancer cells (PC-3); test: MTT growth inhibition of PC-3; assay type: cell-based; details: 96 h, PC-3, MTT, 4 days, read-out: IG50 PC-3
Description: as §1, §2, §3, §4, §5, §6, §7, §8

[11] = system: Rat aortic ring; test: Rat Aortic Ring Assay; assay type: cell-based; details: observed on the sixth day
In short: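 1 mm abdominal aortic rings from 6-week-old SD animals embedded in Matrigel, cultured in DMEM/10% FBS with compound at various concentrations (≥3 wells), medium and compound renewed day 3. Microvessel area imaged on day 6 (×100, 3 random rings); inhibition rate scored: ⋆<30-60%, ⋆⋆60-90%, ⋆⋆⋆>90%.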

[12] = target: VEGFR-2 (Homo sapiens, UniProt P35968); test: VEGFR-2 inhibition rate test (kinase assay kit, colorimetric ELISA); details: concentration not given
VEGFR-2, sequence (P35968 20-1356): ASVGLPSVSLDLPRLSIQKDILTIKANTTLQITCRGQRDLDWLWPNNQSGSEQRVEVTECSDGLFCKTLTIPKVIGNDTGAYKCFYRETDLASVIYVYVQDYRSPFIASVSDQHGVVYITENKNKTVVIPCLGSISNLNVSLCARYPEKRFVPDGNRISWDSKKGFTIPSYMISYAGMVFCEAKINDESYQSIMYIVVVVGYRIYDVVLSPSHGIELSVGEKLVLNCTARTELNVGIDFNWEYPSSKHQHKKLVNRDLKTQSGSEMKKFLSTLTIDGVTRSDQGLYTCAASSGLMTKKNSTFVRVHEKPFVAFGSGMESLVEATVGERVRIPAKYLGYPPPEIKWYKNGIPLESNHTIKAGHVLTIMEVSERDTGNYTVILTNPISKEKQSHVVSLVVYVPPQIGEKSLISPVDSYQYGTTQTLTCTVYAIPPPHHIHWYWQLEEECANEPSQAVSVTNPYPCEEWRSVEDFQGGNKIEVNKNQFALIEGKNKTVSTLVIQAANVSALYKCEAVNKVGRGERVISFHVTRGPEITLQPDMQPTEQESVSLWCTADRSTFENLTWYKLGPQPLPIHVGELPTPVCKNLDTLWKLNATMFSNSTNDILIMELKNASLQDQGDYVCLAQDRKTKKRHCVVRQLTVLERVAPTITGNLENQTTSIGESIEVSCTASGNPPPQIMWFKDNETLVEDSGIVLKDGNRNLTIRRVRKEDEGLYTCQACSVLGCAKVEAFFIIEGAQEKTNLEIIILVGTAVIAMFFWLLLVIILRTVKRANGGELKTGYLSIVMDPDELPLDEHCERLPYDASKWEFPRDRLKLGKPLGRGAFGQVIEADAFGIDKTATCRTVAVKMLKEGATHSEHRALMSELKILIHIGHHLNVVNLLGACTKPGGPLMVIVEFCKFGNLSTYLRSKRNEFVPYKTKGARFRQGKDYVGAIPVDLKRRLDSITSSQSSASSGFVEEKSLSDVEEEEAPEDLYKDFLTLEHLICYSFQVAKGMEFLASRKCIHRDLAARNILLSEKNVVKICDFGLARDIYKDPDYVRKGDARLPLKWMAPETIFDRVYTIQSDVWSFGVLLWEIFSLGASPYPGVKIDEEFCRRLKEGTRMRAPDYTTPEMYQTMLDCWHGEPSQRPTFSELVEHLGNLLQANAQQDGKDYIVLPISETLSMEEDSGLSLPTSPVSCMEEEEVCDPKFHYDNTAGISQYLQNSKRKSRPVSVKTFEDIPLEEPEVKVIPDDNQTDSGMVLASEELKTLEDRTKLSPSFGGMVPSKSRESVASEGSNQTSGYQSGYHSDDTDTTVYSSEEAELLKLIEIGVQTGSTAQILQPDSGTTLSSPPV

CCCCOc1cc2nnnc(Nc3ccc(C)cc3)c2cc1OC [Example 27, 6-methoxy-7-n-butoxy-4-(4-methylanilino)-benzo[d][1,2,3]triazine]
LD50 at 1 week [1]: 733 mg/kg | pIC50 [2]: 4.73 | pIC50 [3]: 5.04 | pIC50 [4]: 4.65 | pIC50 [5]: 4.71 | pIC50 [6]: 4.82 | pIC50 [7]: 4.80 | pIC50 [8]: 5.30 | pIC50 [9]: 5.21 | pIC50 [10]: 4.80

FC(F)(F)c1cccc(Nc2nnnc3ccc(Cl)nc23)c1 [Example 84, 6-chloro-4-(3-trifluoromethylanilino)pyrido[3,2-d][1,2,3]triazine]
LD50 at 1 week [1]: 424 mg/kg | pIC50 [2]: 5.23 | pIC50 [3]: 5.28 | pIC50 [4]: 5.37 | pIC50 [5]: 5.29 | pIC50 [6]: 5.23 | Rat Aortic Ring Assay (10 ug/ml), result in words [11]: Almost complete inhibition (10 μg/mL), vascular ring was dead | pIC50 [7]: 5.32 | pIC50 [8]: 5.52 | pIC50 [9]: 5.40 | pIC50 [10]: 5.16

FC(F)(F)Oc1cccc(Nc2nnnc3ccc(Cl)nc23)c1 [Example 86, 6-chloro-4-(3-trifluoromethoxyanilino)pyrido[3,2-d][1,2,3]triazine]
LD50 at 1 week [1]: 292 mg/kg | pIC50 [2]: 5.19 | pIC50 [3]: 5.37 | pIC50 [4]: 5.33 | pIC50 [5]: 5.33 | pIC50 [6]: 5.38 | Rat Aortic Ring Assay (10 ug/ml), result in words [11]: Almost complete inhibition (10 μg/mL), vascular ring was dead | pIC50 [7]: 5.38 | pIC50 [8]: 5.66 | Kinase inhibition rate (VEGFR-2) [12]: 29.93 | pIC50 [9]: 5.34 | pIC50 [10]: 5.22
